The values below are quoted from earlier work in publication PMC4939794 (Biochemistry, 2015).

For the substance green fluorescent protein [GFP], the CRO maturation half-life (depending on the variant and the conditions) is 19 to 83 min. Also, where the note is “multiphasic, three to five folding rates”, the folding rates is 10 to 0.01 s^−1. In addition, the unfolding half-life result (water at neutral pH, standard temperature and pressure, estimated) is “greater than 1 month”.
